Data taken from ChEMBL document CHEMBL1150183, “Spermine alkaloids from Schweinfurthia papilionacea” (J Nat Prod, 1990).

Experiments:
Assay type in all cases: toxicity, organism-based
Salmonella typhimurium [1] = assay: Mutagenic activity in Salmonella Typhimurium TA97a assessed as number of spontaneous revertants at 500 ug/plate by Ames test in absence of rat liver microsomal S9 fraction; conditions: salmonella enterica subsp. enterica serovar typhimurium
Salmonella typhimurium [2] = assay: Mutagenic activity in Salmonella Typhimurium TA100 assessed as number of spontaneous revertants at 500 ug/plate by Ames test in absence of rat liver microsomal S9 fraction; conditions: salmonella enterica subsp. enterica serovar typhimurium
Salmonella typhimurium [3] = assay: Mutagenic activity in Salmonella Typhimurium TA98 assessed as increase in spontaneous revertants by Ames test relative to control spontaneous reversion; conditions: salmonella enterica subsp. enterica serovar typhimurium
Salmonella typhimurium [4] = assay: Mutagenic activity in Salmonella Typhimurium TA100 assessed as number of spontaneous revertants at 500 ug/plate by Ames test in presence of rat liver microsomal S9 fraction; conditions: salmonella enterica subsp. enterica serovar typhimurium, microsomes
Salmonella typhimurium [5] = assay: Mutagenic activity in Salmonella Typhimurium TA98 assessed as number of spontaneous revertants at 500 ug/plate by Ames test in presence of rat liver microsomal S9 fraction; conditions: salmonella enterica subsp. enterica serovar typhimurium, microsomes
Salmonella typhimurium [6] = assay: Mutagenic activity in Salmonella Typhimurium TA98 assessed as number of spontaneous revertants at 500 ug/plate by Ames test in absence of rat liver microsomal S9 fraction; conditions: salmonella enterica subsp. enterica serovar typhimurium
Salmonella typhimurium [7] = assay: Mutagenic activity in Salmonella Typhimurium TA100 assessed as increase in spontaneous revertants by Ames test relative to control spontaneous reversion; conditions: salmonella enterica subsp. enterica serovar typhimurium

O=C1C[C@H]2NCCCNCCCCN(CCCN1)C(=O)[C@@H]1c3cc2ccc3O[C@H]1c1ccc(O)cc1
Activity (Salmonella typhimurium [1]): 0 | Activity (Salmonella typhimurium [2]): 143 | fold change (FC) (Salmonella typhimurium [3]): 22 | Activity (Salmonella typhimurium [4]): 461 | Activity (Salmonella typhimurium [5]): 778 | Activity (Salmonella typhimurium [6]): 81 | fold change (FC) (Salmonella typhimurium [7]): 4
